System: human venous whole blood, CD8 positive population (pERK)
Assay: DGK human whole blood pERK assay
Assay type: cell-based
Details: Homo sapiens, CD8 positive, human whole blood pERK; read-out: DGK HWB
Experimental: Assay 11: DGK Human Whole Blood pERK Assay
Human whole blood ERK phosphorylation assay was performed with human venous whole blood obtained from healthy donors (drawn with Heparin as anti-coagulant). […] Heparinized human whole blood was added to the compound plate at 9 μL per well and incubated for one hour at 37° C. in a humidified 95%, air/5% CO2 incubator. After one hour of compound incubation, 1 μL of human anti-CD3 antibody (in-house) in the presence of cross-linking antibody goat anti-mouse IgG (4 μg/mL) was added to the well at 1 μg/mL final concentration for stimulation of pathway and additionally incubated for 15 minutes at 37° C. […] Samples analyzed using the Intellicyt® iQue Screener PLUS. The pERK activation was quantitated by the percentage of pERK positive population within CD8 positive population.

SMILES | EC50
CC1CN(c2cc(=O)n(C)c3ccc(C#N)nc23)CCC1N(C)Cc1ccc(F)cc1 (single isomer, unassigned) [Example 327, -(4-((4-fluorobenzyl)(methyl)amino)-3-methylpiperidin-1-yl)-5-methyl-6-oxo-5,6-dihydro-1,5-naphthyridine-2-carbonitrile] | 1.9 µM
CC1CN(c2c(C#N)c(=O)n(C)c3ccc(C#N)nc23)CCC1N(C)C1CCC(F)(F)CC1 (single isomer, unassigned) [Example 329] | 13 µM

Same assay, conditions: Homo sapiens, CD8 positive, read-out: DGK HWB, human whole blood pERK

EC50 | SMILES
11 µM | C[C@@H]1CN(c2cc(=O)n(C)c3ccc(C#N)nc23)[C@@H](C)CC1N(C)Cc1ccc(F)cc1 (single isomer, unassigned) [Example 331]
1.8 µM | C[C@@H]1CC(Oc2cccc(C(F)(F)F)c2)[C@@H](C)CN1c1nc(=O)n(C)c2ccc(C#N)nc12 (stereo in doubt) [Example 251, 4-((2R,5S)-2,5-dimethyl-4-(3-(trifluoromethyl)phenoxy)piperidin-1-yl)-1-methyl-2-oxo-1,2-dihydropyrido[3,2-d]pyrimidine-6-carbonitrile]
3.5 µM | C[C@@H]1CN(c2nc(=O)n(C)c3ccc(C#N)nc23)[C@@H](C)CC1Oc1cccc(C(F)(F)F)c1 (stereo in doubt) [Example 252, 4-((2S,5R)-2,5-dimethyl-4-(3-(trifluoromethyl)phenoxy)piperidin-1-yl)-1-methyl-2-oxo-1,2-dihydropyrido[3,2-d]pyrimidine-6-carbonitrile]
0.74 µM | CC(C)Oc1ccc(OC2C[C@@H](C)N(c3nc(=O)n(C)c4ccc(C#N)nc34)C[C@@H]2C)nc1 (stereo partly drawn) [Example 248, 4-((2R,5S)-4-((5-isopropoxypyridin-2-yl)oxy)-2,5-dimethylpiperidin-1-yl)-1-methyl-2-oxo-1,2-dihydropyrido[3,2-d]pyrimidine-6-carbonitrile]

Same assay, conditions: human whole blood pERK; read-out: DGK HWB

SMILES | EC50
CC1CN(c2c(C#N)c(=O)n(C)c3ccc(C#N)nc23)CCC1N(C)C1CCC(F)(F)CC1 (single isomer, unassigned) [Example 330] | 20 µM

Same assay, conditions: read-out: DGK HWB; human whole blood pERK

SMILES | EC50
CC(C)Oc1ccc(OC2C[C@H](C)N(c3nc(=O)n(C)c4ccc(C#N)nc34)C[C@H]2C)nc1 (stereo partly drawn) [Example 247, 4-((2S,5R)-4-((5-isopropoxypyridin-2-yl)oxy)-2,5-dimethylpiperidin-1-yl)-1-methyl-2-oxo-1,2-dihydropyrido[3,2-d]pyrimidine-6-carbonitrile] | 0.74 µM
CC(C)Oc1ccc(OC2C[C@@H](C)N(c3nc(=O)n(C)c4ccc(C#N)nc34)C[C@@H]2C)nc1 (stereo partly drawn) [Example 249, 4-((2R,5S)-4-((5-isopropoxypyridin-2-yl)oxy)-2,5-dimethylpiperidin-1-yl)-1-methyl-2-oxo-1,2-dihydropyrido[3,2-d]pyrimidine-6-carbonitrile] | 0.49 µM
CC(C)Oc1ccc(OC2C[C@H](C)N(c3nc(=O)n(C)c4ccc(C#N)nc34)C[C@H]2C)nc1 (stereo partly drawn) [Example 250, 4-((2S,5R)-4-((5-isopropoxypyridin-2-yl)oxy)-2,5-dimethylpiperidin-1-yl)-1-methyl-2-oxo-1,2-dihydropyrido[3,2-d]pyrimidine-6-carbonitrile] | 2.1 µM

Continued, values first:

EC50 | SMILES
20 µM | CC1CN(c2c(C#N)c(=O)n(C)c3ccc(C#N)nc23)CCC1N(C)C(=O)c1ccc(C(F)(F)F)cc1 (single isomer, unassigned) [Example 293, N-(1-(3,6-dicyano-1-methyl-2-oxo-1,2-dihydro-1,5-naphthyridin-4-yl)-3-methylpiperidin-4-yl)-N-methyl-4-(trifluoromethyl)benzamide]
16 µM | C[C@@H]1CN(c2cc(=O)n(C)c3ccc(C#N)nc23)[C@@H](C)CC1N(C)Cc1ccc(F)cc1 (single isomer, unassigned) [Example 332]
5.5 µM | C[C@H]1CN(c2cc(=O)n(C)c3ccc(C#N)nc23)[C@@H](C)CC1N(C)Cc1ccc(F)cc1 (single isomer, unassigned) [Example 333]
20 µM | C[C@H]1CN(c2cc(=O)n(C)c3ccc(C#N)nc23)[C@@H](C)CC1N(C)Cc1ccc(F)cc1 (single isomer, unassigned) [Example 334]
